Source: US20250376477A1, “ANALGESIC DELTA OPIOID RECEPTOR BITOPIC LIGANDS” (UNIVERSITY OF SOUTHERN CALIFORNIA, priority 2022, published 2025)

What was measured:
DOR [1] = biological target: T1, DOR (Homo sapiens, UniProt P41143); format: cell-based; conditions: for potency at DOR: BRET based Gi-1 assay / G-protein pathways; for selectivity for DOR over other opioid subtypes: DOR vs KOR and MOR, BRET based Gi-1 assays; for G-protein bias: G-protein vs arrestin at DOR
KOR = KOR (Homo sapiens, UniProt P41145); experiment: BRET based Gi-1 assay, activation of KOR; format: cell-based
Sequence of KOR (P41145 whole entry): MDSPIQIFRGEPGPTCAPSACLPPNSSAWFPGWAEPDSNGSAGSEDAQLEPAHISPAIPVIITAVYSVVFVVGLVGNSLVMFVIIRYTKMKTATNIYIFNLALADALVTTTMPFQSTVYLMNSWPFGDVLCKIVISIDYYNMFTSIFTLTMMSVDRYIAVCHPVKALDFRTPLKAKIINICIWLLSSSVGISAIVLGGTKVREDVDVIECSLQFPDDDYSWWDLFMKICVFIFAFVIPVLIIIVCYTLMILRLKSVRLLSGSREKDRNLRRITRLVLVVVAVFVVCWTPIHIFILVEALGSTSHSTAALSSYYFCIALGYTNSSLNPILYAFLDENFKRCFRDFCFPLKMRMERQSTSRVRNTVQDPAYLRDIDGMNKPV

DOR [2] = biological target: T1, DOR; format: cell-based; conditions: compared to known DOR orthosteric site binders
[3] = In vivo analgesia / oral activity in chronic pain models; conditions: for Orally active: oral
C57BL/6J mice [4] = experiment: Seizure assay; conditions: for seizure occurrence: compared with known DOR agonists; for seizures in seizure assay: C57BL/6J mice, sc injection, C6 quino at analgesic doses
DOR [5] = biological target: T1, DOR; format: cell-based; conditions: compared to DPDPE and C5 quino
DOR [6] = biological target: T1, DOR; format: cell-based; conditions: compared to DPDPE and C5 quino; remark: listed apart in the source
sciatic nerve ligation = experiment: Mechanical allodynia induced by sciatic nerve ligation; format: in vivo
Description: Mechanical allodynia induced by sciatic nerve ligation was reduced between 20 and 140 minutes after treatment with 30 mg/kg C6-quino sc. Supraspinal (icv) antinociception mediated by C6 quino is DOR dependent, yet C6-quino produced no seizures (B, top).

DOR [7] = biological target: T2, DOR (Mus musculus, UniProt P32300); format: in vivo
T2 construct: from tissue; host or cells: living animal, central nervous system (icv dosing)
T2 sequence (P32300 whole entry): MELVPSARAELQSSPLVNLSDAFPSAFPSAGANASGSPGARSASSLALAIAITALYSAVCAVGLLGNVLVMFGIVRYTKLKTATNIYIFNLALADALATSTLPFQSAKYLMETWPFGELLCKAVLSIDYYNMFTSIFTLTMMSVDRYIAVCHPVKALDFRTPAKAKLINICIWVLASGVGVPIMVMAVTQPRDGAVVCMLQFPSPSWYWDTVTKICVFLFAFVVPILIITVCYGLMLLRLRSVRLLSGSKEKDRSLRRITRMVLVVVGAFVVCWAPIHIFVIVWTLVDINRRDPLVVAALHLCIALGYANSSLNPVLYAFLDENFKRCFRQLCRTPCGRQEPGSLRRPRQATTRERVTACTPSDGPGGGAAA

PK assays = format: in vivo
C57BL/6J mice [8] = experiment: Locomotor effects; conditions: sc injection, C6-quino 30 mg/kg sc
Microsomal stability = conditions: microsomes
C57BL/6J mice [9] = experiment: Respiratory depression; conditions: sc injection, morphine 10 mg/kg
C57BL/6J mice [10] = experiment: Rotarod assay (motor coordination); conditions: sc injection

T1 sequence (P41143 whole entry): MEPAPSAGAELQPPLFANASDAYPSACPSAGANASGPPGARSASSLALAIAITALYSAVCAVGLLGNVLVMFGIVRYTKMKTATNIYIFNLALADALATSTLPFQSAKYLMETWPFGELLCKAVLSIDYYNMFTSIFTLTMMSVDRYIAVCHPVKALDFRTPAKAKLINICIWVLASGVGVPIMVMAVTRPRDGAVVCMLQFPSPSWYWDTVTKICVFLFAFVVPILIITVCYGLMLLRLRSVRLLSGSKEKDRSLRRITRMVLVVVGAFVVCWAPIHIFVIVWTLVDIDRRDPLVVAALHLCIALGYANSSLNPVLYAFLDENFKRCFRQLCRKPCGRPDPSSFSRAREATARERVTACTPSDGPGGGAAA

| SMILES | potency at DOR (DOR [1]) | activity at KOR (KOR) | selectivity for DOR over other opioid subtypes (DOR [1]) | functional profile (potency and efficacy) across DOR G protein subtypes and βarrestin-1 and 2 (DOR [2]) | G-protein bias (DOR [1]) | efficacy in chronic pain models [3] | Orally active [3] | seizure occurrence (C57BL/6J mice [4]) | seizures in seizure assay (C57BL/6J mice [4]) | locomotor activity (C57BL/6J mice [8]) | respiratory depression (C57BL/6J mice [9]) | also measured |
| --- | --- | --- | --- | --- | --- | --- | --- | --- | --- | --- | --- | --- |
| N=C(N)NCCCCCN1CC[C@]23c4c5ccc(O)c4O[C@H]2c2[nH]c4ccccc4c2C[C@@]3(O)[C@H]1C5 [C5-Indole] | high potency | retained activity |  |  |  |  |  |  |  |  |  |  |
| N=C(N)NCCCCCN1CCC23c4c5ccc(O)c4O[C@H]2c2nc4ccccc4cc2C[C@@]3(O)C1C5 (stereo partly shown) [C5-Quino] | high potency |  | selectivity for DOR over other opioid subtypes | unique functional profiling |  |  |  |  |  |  |  |  |
| N=C(N)NCCCCCCN1CCC23c4c5ccc(O)c4O[C@H]2c2[nH]c4ccccc4c2C[C@@]3(O)C1C5 (stereo partly shown) [C6-Indole] | high potency | retained activity |  |  | G-protein biased | effective in chronic pain models | orally active | do not cause seizures |  |  |  |  |
| N=C(N)NCCCCCCN1CCC23c4c5ccc(O)c4O[C@H]2c2nc4ccccc4cc2C[C@@]3(O)C1C5 (stereo partly shown) [C6-Quino] | high potency |  | selectivity for DOR over other opioid subtypes | unique functional profiling | G-protein biased | effective in chronic pain models | orally active | do not cause seizures | no seizures | did not significantly differ from the vehicle at any time point | did not cause significant respiratory depression | intrinsic efficacy at DOR, G-protein (DOR [1]; compared to DPDPE and C5 quino): lower intrinsic efficacy; intrinsic efficacy at DOR, βarrestin-1 (DOR [5]): lower intrinsic efficacy; intrinsic efficacy at DOR, βarrestin-2 (DOR [6]): lower intrinsic efficacy; anti-allodynic effect in presence of NTB (sciatic nerve ligation; antagonist NTB): antagonized by NTB; anti-allodynic activity (sciatic nerve ligation; sciatic nerve ligation, mechanical allodynia): dose- and time-dependent anti-allodynic activity similar to gabapentin; supraspinal (icv) antinociception, receptor dependence (DOR [7]): DOR dependent; brain penetration (PK assays; PK assays): good; systemic availability (PK assays; PK assays): good; half-life (PK assays; in vivo): 2 h; Orally active ([3]; listed as 6C-Quino): YES; seizures (C57BL/6J mice [4]; FIG. 4B top): no seizures; half-life (Microsomal stability): > 2 h; sedation in rotarod assay (C57BL/6J mice [10]): no propensity to cause sedation |
| CN1CC[C@]23c4c5ccc(O)c4O[C@H]2[C@@H](O)C=C[C@H]3[C@H]1C5 [Morphine, reference compound] |  |  |  |  |  |  |  |  |  | hyperlocomotion | caused respiratory depression |  |
| C=CCN1C[C@H](C)N([C@H](c2ccc(C(=O)N(CC)CC)cc2)c2cccc(OC)c2)C[C@H]1C [SNC80, reference compound] |  |  |  |  |  |  |  |  | caused seizures |  |  |  |
